Measurements from patent publication US20170008888A1 (KYORIN PHARMACEUTICAL CO., LTD., priority 2014, published 2017).
Read-outs that look alike come from different tables or passages of the source.

Assays:
Assay type in all cases: cell-based
[1] = system: diseased primary human lung fibroblasts; experiment: Cytokine response by primary diseased human lung fibroblasts stimulated with IL-17A or IL-17F; settings: Fibroblast, 48 h
Procedure: Primary lung fibroblasts isolated from a patient diagnosed with asthma were obtained from Lonza (Allendale, N.J.) and maintained in FGM-2 fibroblast growth medium (Lonza). Cells were seeded at 1e5 cells/ml and incubated at 37° C. in a humidified atmosphere at 5% CO2 overnight to adhere. Cells were pre-treated with test compounds (10 μM down by ⅕ in a 3- or 4-point serial dilution series) for 1 h at 37° C. in a humidified atmosphere at 5% CO2. DMSO at a final concentration of 0.1% served as the non-inhibited control. Cells were stimulated with 50 ng/ml of either human recombinant IL-17A or IL-17F (eBioscience, San Diego, Calif.), for 48 h. Supernatant was then collected and analyzed for cytokine concentrations using the Bio-Plex Pro Human Cytokine 17-Plex Panel (Bio-Rad Laboratories, Hercules, Calif.) according to the manufacturer's instructions. Magnetic beads were measured on the Bio-Plex MAGPIX multiplex reader instrument using the accompanying xPONENT 4.2 acquisition software (Bio-Rad Laboratories). Data were analyzed via the Bio-Plex Manager software v6.1 (Bio-Rad Laboratories). Only four (+IL-17F) to six (+IL-17A) cytokines were in range of detection under the conditions used.
G-CSF concentrations were below the limit of detection when cells were stimulated with IL-17F.

[2] = system: primary asthmatic human bronchial epithelial cells; experiment: IL-17A- or IL-17F-mediated cytokine response by primary asthmatic human bronchial epithelial cells; settings: Epithelial cell, 48 h, 48 h
Procedure: The virally immortalized, normal human bronchial epithelial cell line BEAS-2B was purchased from ATCC (Manassas, Va.). Primary bronchial epithelial cells isolated from a patient diagnosed with asthma were obtained from Lonza (Allendale, N.J.). Both cells were maintained in complete Bronchial Epithelial Cell Growth Medium (BEGM) (Lonza). Cells were seeded at 1e5 cells/ml and incubated at 37° C. in a humidified atmosphere at 5% CO2 overnight to adhere. Cells were pre-treated with test compounds (10 μM down by ⅕ in a 3- or 4-point serial dilution series) for 1 h at 37° C. in a humidified atmosphere at 5% CO2. DMSO at a final concentration of 0.1% served as the non-inhibited control. Budesonide (Selleck Chemicals, Houston, Tex.), a clinically approved glucocorticoid steroid for the treatment of asthma, was tested as a positive control at 0.25 μM. Cells were stimulated with 50 ng/ml of either human recombinant IL-17A or IL-17F (eBioscience, San Diego, Calif.), for 48 h. Supernatant was then collected and analyzed for cytokine concentrations using the Bio-Plex Pro Human Cytokine 17-Plex Panel (Bio-Rad Laboratories, Hercules, Calif.) according to the manufacturer's instructions. Magnetic beads were measured on the Bio-Plex MAGPIX multiplex reader instrument using the accompanying xPONENT 4.2 acquisition software (Bio-Rad Laboratories). Data were analyzed via the Bio-Plex Manager software v6.1 (Bio-Rad Laboratories). For the primary asthmatic bronchial epithelial cells, five (+IL-17F) to thirteen (+IL-17A) cytokines were in range of detection under the conditions used. […] Select cytokines were analyzed for comparison using the BEAS-2B cell line.
BLQ: cytokine levels were below limits of quantitation.

[3] = system: human CD4+ T cells; experiment: Cytokines produced by human CD4+ T cells stimulated with PMA/ionomycin; settings: 10 μM compound, PMA/ionomycin 20 h
Excerpt: Freshly isolated human peripheral blood mononuclear cells (PBMCs) were purchased from Astarte Biologics (Redmond, Wash.). CD4+ T cells were isolated from the PBMCs using the EasySep Negative Selection Human CD4+ T Cell Enrichment Kit (Stemcell Technologies, Vancouver, Canada) according to manufacturer's instructions briefly as follows: Unwanted cells were specifically labeled with a cocktail of bispecific tetrameric antibody complexes (TAC) against dextran and cell surface antigens (CD8, CD14, CD16, CD19, CD20, CD36, CD56, CD66b, CD123, TCRγ/δ, glycophorin A). Labeled cells were then targeted for removal by incubation with dextran-coated magnetic particles, leaving the desired CD4+ T cells.
Human CD4+ T cells, isolated as shown in protocol A, were seeded at 2e6 cells/ml in RPMI 1640 containing 10% (v/v) charcoal-dextran treated, heat inactivated FBS (Omega Scientific, Tarzana, Calif.), 0.05 mM 2-Mercaptoethanol (Sigma-Aldrich, St. Louis, Mo.), and 1×Pen/Strep Amphotericin B (Lonza, Allendale, N.J.). Cells were pre-treated with test compounds (10 μM) for 1 h at 37° C. in a humidified atmosphere at 5% CO2. Cells were then stimulated with 50 ng/ml phorbol 12-myristate 13-acetate (PMA)(Sigma-Aldrich, St. Louis, Mo.)+1 μg/ml ionomycin (Life Technologies, Grand Island, N.Y.) for 20 h at 37° C. in a humidified atmosphere at 5% CO2. Supernatant was collected and analyzed using Bio-Plex Pro Human Th17 Cytokine 15-Plex Panel (Bio-Rad Laboratories, Hercules, Calif.) as per manufacturer's protocols. Magnetic beads were read on the Bio-Plex MAGPIX multiplex reader instrument using the accompanying xPONENT 4.2 acquisition software (Bio-Rad Laboratories, Hercules, Calif.). Data were analyzed via the Bio-Plex Manager software v6.1 (Bio-Rad Laboratories).
IL-1β, IL-2, IL-7, and IL-12 (p70) were below the limit of detection under conditions used. The concentrations of the observed analytes of the DMSO control, from top to bottom as listed, are as follows: 31, 585, 24178, 22, 48, 91, 728, 94, 156, 705, 15, 1045, 5501 pg/ml.

[4] = +50 ng/ml IL-17A, read-out: EC50 values (μM), G-CSF
[5] = +50 ng/ml IL-17A, read-out: EC50 values (μM), IL-6
[6] = +50 ng/ml IL-17A, read-out: EC50 values (μM), IL-8
[7] = +50 ng/ml IL-17A, read-out: EC50 values (μM), MCP-1
[8] = +50 ng/ml IL-17F, read-out: EC50 values (μM), IL-6
[9] = +50 ng/ml IL-17F, read-out: EC50 values (μM), IL-8
[10] = +50 ng/ml IL-17F, read-out: EC50 values (μM), MCP-1
[11] = +50 ng/ml IL-17A, read-out: EC50 values (μM), GM-CSF
[12] = +50 ng/ml IL-17A, read-out: EC50 values (μM), IFN-γ
[13] = +50 ng/ml IL-17A, read-out: EC50 values (μM), IL-1β
[14] = +50 ng/ml IL-17A, read-out: EC50 values (μM), IL-2
[15] = +50 ng/ml IL-17F, read-out: EC50 values (μM), G-CSF
[16] = +50 ng/ml IL-17F, read-out: EC50 values (μM), IFN-γ
[17] = +50 ng/ml IL-17F, read-out: EC50 values (μM), IL-1β
[18] = read-out: Percent inhibition of G-CSF (relative to DMSO control)
[19] = read-out: Percent inhibition of GM-CSF (relative to DMSO control)
[20] = read-out: Percent inhibition of IFNγ (relative to DMSO control)
[21] = read-out: Percent inhibition of IL-4 (relative to DMSO control)
[22] = read-out: Percent inhibition of IL-5 (relative to DMSO control)
[23] = read-out: Percent inhibition of IL-6 (relative to DMSO control)
[24] = read-out: Percent inhibition of IL-10 (relative to DMSO control)
[25] = read-out: Percent inhibition of IL-13 (relative to DMSO control)
[26] = read-out: Percent inhibition of IL-17A (relative to DMSO control)
[27] = read-out: Percent inhibition of MCP-1 (relative to DMSO control)
[28] = read-out: Percent inhibition of MIP-1β (relative to DMSO control)
[29] = read-out: Percent inhibition of TNFα (relative to DMSO control)
[30] = read-out: Percent inhibition of IL-8 (relative to DMSO control)

Structure (SMILES) | EC50 [1, 4] [µM] | EC50 [1, 5] [µM] | EC50 [1, 6] [µM] | EC50 [1, 7] [µM] | EC50 [1, 8] [µM] | EC50 [1, 9] [µM] | EC50 [1, 10] [µM] | inhibition at 10 µM [3, 18] [%] | inhibition at 10 µM [3, 19] [%] | inhibition at 10 µM [3, 20] [%] | inhibition at 10 µM [3, 21] [%] | inhibition at 10 µM [3, 22] [%] | inhibition at 10 µM [3, 23] [%] | inhibition at 10 µM [3, 24] [%] | inhibition at 10 µM [3, 25] [%] | inhibition at 10 µM [3, 26] [%] | inhibition at 10 µM [3, 27] [%] | inhibition at 10 µM [3, 28] [%] | inhibition at 10 µM [3, 29] [%] | inhibition at 10 µM [3, 30] [%] | also measured
CCOc1cc(C(=O)N2CCC(N3CCN(C)CC3)CC2)ccc1Nc1cc2c(cn1)N(C)C(=O)c1occc1N2C [Compound 65] | 3.5 | 5.69 | 0.48 | 1.31 | 2.49 | 0.52 | 1.85 | 36.1 | 89.5 | 12.3 | 10.1 | 47.7 | 87.7 | 98 | 18.3 | 39.3 | 64.2 | 55.8 | 56.9 |  | EC50 [2, 4]: 2.68 µM; EC50 [2, 11]: 4.06 µM; EC50 [2, 12]: > 10 µM; EC50 [2, 13]: 1.57 µM; EC50 [2, 14]: > 10 µM; EC50 [2, 5]: 0.56 µM; EC50 [2, 6]: 0.63 µM; EC50 [2, 7]: > 10 µM; EC50 [2, 15]: 1.77 µM; EC50 [2, 16]: 1.98 µM; EC50 [2, 17]: 1.57 µM; EC50 [2, 8]: 0.59 µM; EC50 [2, 9]: 1.27 µM
CCOc1cc(C(=O)N2CC[C@@H](N(C)C)C2)ccc1Nc1cc2c(cn1)N(C)C(=O)c1ccccc1N2C [Compound 115] | 0.86 | 1.16 | < 0.08 | 0.35 | 0.95 | < 0.08 | 0.36 |  |  |  |  |  |  |  |  |  |  |  |  |  | EC50 [2, 4]: 0.66 µM; EC50 [2, 11]: 1.39 µM; EC50 [2, 12]: > 10 µM; EC50 [2, 13]: 0.95 µM; EC50 [2, 14]: 5.31 µM; EC50 [2, 5]: 0.16 µM; EC50 [2, 6]: 0.15 µM; EC50 [2, 7]: 6.1 µM; EC50 [2, 15]: 0.21 µM; EC50 [2, 16]: 0.34 µM; EC50 [2, 17]: 0.38 µM; EC50 [2, 8]: 0.34 µM; EC50 [2, 9]: 0.28 µM
CCOc1cc(C(=O)N2CCNCC2)ccc1Nc1cc2c(cn1)N(C)C(=O)c1ccccc1N2C [Compound 62] |  |  |  |  |  |  |  | 27.6 | 95.4 | 15.6 | -4.8 | 29.7 | 86.9 | 97.2 | 19.8 | 49.7 | 66.1 | 66.9 | 70.1 | -179 | 
CCOc1cc(C(=O)NCC2CC2)ccc1Nc1cc2c(cn1)N(C)C(=O)c1ccccc1N2C [Compound 57] |  |  |  |  |  |  |  | 34.5 | 95.9 | 50.9 | 31.4 | 42.8 | 91.1 | 97.7 | 55.6 | 78.8 | 70.6 | 56.2 | 58.3 | -44.1 | 
CCOc1cc(C(=O)N2CCC(N3CCCC3)CC2)ccc1Nc1cc2c(cn1)N(C)C(=O)c1ccccc1N2C [Compound 46, 3-(2-Ethoxy-4-(4-(pyrrolidin-1-yl)piperidine-1-carbonyl)phenylamino)-5,11-dimethyl-5H-benzo[e]pyrido[3,4-b][1,4]diazepin-10(11H)-one] |  |  |  |  |  |  |  | 26.4 | 96.7 | 18.3 | 11.7 | 49.1 | 89.3 | 97.3 | 32.1 | 52.2 | 67.6 | 63.9 | 64 | -109 | 
